From BindingDB's records for doi:10.1021/jm00126a013 (University of California, 1989) come the findings set out here.

Each structure is given as a SMILES string. pIC50: −log10 of the molar value. Bounds are passed on as bounds.

The first assay concerns the target Vesicular acetylcholine transporter (Torpedo californica). The assay is described as follows: Inhibition of active transport of [3H]acetylcholine using purified Torpedo californica synaptic vesicles.
In the case of `O=C(CCCCC1SCC2NC(=O)NC21)NCC(=O)NCC(=O)Nc1cccc2c1CC(N1CCC(c3ccccc3)CC1)C(O)C2` (configuration not stated), the pIC50 (as a rule, the negative decadic logarithm of the IC50, by convention in mol/L) is 6.70. On the same count and under the same terms, next, `O[C@@H]1[C@H](O)CCC[C@H]1N1CCC(c2ccccc2)CC1`: 7.00. Consider `OC1CCCCC1N1CCCCC1` (configuration not stated), for which the pIC50 was under 4.40. Same read-out and setting: next, `CCC(O)C[N+]1(C)CCC(c2ccccc2)CC1` (configuration not stated): 5.70. Still for that read-out and setting: next, `CC1(c2ccccc2)CCCN(C2CCCCC2O)C1` (configuration not stated): 5.40; `OC1CCCCC1N1CC=C(c2ccc(Cl)cc2)CC1` (configuration not stated): 6.70.

`OC1CCCCC1N1C=NC(c2ccccc2)C1` (configuration not stated) gave a pIC50 of 4.40. Molecule `Nc1cccc2c1CC(N1CCC(c3ccccc3)CC1)C(O)C2` (configuration not stated) had a pIC50 of 7.00. Same read-out and setting: in the case of `O=C(CCCCC1SCC2NC(=O)NC21)Nc1cccc2c1CC(N1CCC(c3ccccc3)CC1)C(O)C2` (configuration not stated) it was 7.00.

Molecule `CC(=O)OCC[N+]1(C)CCC(c2ccccc2)CC1` (configuration not stated) had a pIC50 of 5.40. In turn, `OC1CCCCC1N1CCN(c2ccccc2)CC1` (configuration not stated) had a pIC50 of 6.52. The molecule `CN(CCCc1ccccc1)C1CCCCC1O` (configuration not stated) had a pIC50 of 5.70. Still for that read-out and setting: in the case of `C[N+]1(CCO)CCC(c2ccccc2)CC1` (configuration not stated) it was 5.10; in that of `Nc1ccc(C2CCN(C3CCCCC3O)CC2)cc1` (configuration not stated), 6.30; in that of `CC(=O)OC1CCCCC1N1CCC(c2ccccc2)CC1` (configuration not stated), 5.70. Molecule `CN(CCc1ccccc1)C1CCCCC1O` (configuration not stated) showed a pIC50 of 4.70. The same measure, in the same setting: next, `CNc1ccc(C2CCN(C3CCCCC3O)CC2)cc1` (configuration not stated): 6.40; `O=C(O)CCC(=O)Nc1cccc2c1CC(N1CCC(c3ccccc3)CC1)C(O)C2` (configuration not stated): 7.30.

On to `OC1CCCCC1N1CC=C(c2ccccc2)CC1` (configuration not stated), for which the pIC50 is 6.70. The same measure, in the same setting: next, `OC1CN(C2CCCCC2O)CCC1c1ccccc1` (configuration not stated): 6.70. `COc1ccc2c3c1OC1C(O)C=CC4C(C2)N(C2CCCCC2O)CCC341` (configuration not stated): the pIC50 was 4.10. The same measure, in the same setting: in the case of `OC1CCCCC1NC1CCc2ccccc21` (configuration not stated) it was 5.52; in that of `CC(C)(C)[C@H]1CC[C@@H](N2CCC(c3ccccc3)CC2)[C@H](O)C1`, 7.05.

In turn, `O=C(O)CCC(=O)Nc1cccc2c1CC(O)C(N1CCC(c3ccccc3)CC1)C2` (configuration not stated) showed a pIC50 of 6.30. The same measure, in the same setting: next, `CC(=O)Nc1ccc(I)c2c1CC(N1CCC(c3ccccc3)CC1)C(O)C2` (configuration not stated): 6.52. Still for that read-out and setting: in the case of `O=c1[nH]c2ccccc2n1C1CCN(C2CCCCC2O)CC1` (configuration not stated) it was 6.00; in that of `O=C(Nc1cccc2c1CC(O)C(N1CCC(c3ccccc3)CC1)C2)C(F)(F)F` (configuration not stated), 5.70; in that of `CN(C)c1ccc(C2CCN(C3CCCCC3O)CC2)cc1` (configuration not stated), 6.52. `CCC(CN1CCC(c2ccccc2)CC1)OC(C)=O` (configuration not stated) showed a pIC50 of 6.10. Still for that read-out and setting: in the case of `CCC(O)CN1CCC(c2ccccc2)CC1` (configuration not stated) it was 6.52; in that of `CC1(O)CCCC[C@H]1N1CCC(c2ccccc2)CC1` (some centres not stated), 5.22; in that of `OC1CCCCC1N1CCC(c2ccc(Cl)cc2)CC1` (configuration not stated), 7.00. On the same count and under the same terms, next, `CC1CN(C2CCCCC2O)CCN1c1ccccc1` (configuration not stated): 6.52; `OC1CCCCC1N1CCN(Cc2ccc3c(c2)OCO3)CC1` (configuration not stated): 6.52. Still for that read-out and setting: next, `OC1CCCCC1N1CCC(CCC2CCN(C3CCCCC3O)CC2)CC1` (configuration not stated): under 6.00; `SC1CCCCC1N1CCC(c2ccccc2)CC1` (configuration not stated): 5.40; `Cc1ccc(C)c(N2CCN(C3CCCCC3O)CC2)c1` (configuration not stated): 7.00. Molecule `CC(=O)Nc1ccc(C2CCN(C3CCCCC3O)CC2)cc1` (configuration not stated) showed a pIC50 of 4.70. Same read-out and setting: next, `O=C1CCC2(O)C3Cc4ccc(O)c5c4C2(CCN3C2CCCCC2O)C1O5` (configuration not stated): under 4.00; `CC(=O)OCCN1CCC(c2ccccc2)CC1`: 5.05; `CN(Cc1ccccc1)C1CCCCC1O` (configuration not stated): 5.00. On the same count and under the same terms, in the case of `OC1CCCCC1N1CCC(Cc2ccccc2)CC1` (configuration not stated) it was 6.52; in that of `CC(=O)OC1CCCCC1[N+]1(C)CCC(c2ccccc2)CC1` (configuration not stated), 5.30. On the same count and under the same terms, in the case of `O=[N+]([O-])c1ccc(C2CCN(C3CCCCC3O)CC2)c([N+](=O)[O-])c1` (configuration not stated) it was 6.52. As for `OC1CCCCC1N1CCC(CCCc2ccccc2)CC1` (configuration not stated), the pIC50 was 7.15. Still for that read-out and setting: in the case of `CC(=O)Nc1cccc2c1CC(O)C(N1CCC(c3ccccc3)CC1)C2` (configuration not stated) it was under 5.70. On the same count and under the same terms, next, `O[C@H]1[C@H](N2CCC(c3ccccc3)CC2)CCC[C@H]1c1ccccc1`: 6.22.

`OC[C@H]1CC[C@@H](O)[C@H](N2CCC(c3ccccc3)CC2)C1` showed a pIC50 of 6.10.

Consider `OC1CCCCC1N1CCC(CCCC2CCN(C3CCCCC3O)CC2)CC1` (configuration not stated), for which the pIC50 was 6.70. Still for that read-out and setting: next, `OC1CCCCC1N1CC2CCC(CC2)C1` (configuration not stated): 4.70; `O=[N+]([O-])c1ccc(C2CCN(C3CCCCC3O)CC2)cc1` (configuration not stated): 7.00; `OC1C2CCC1C(N1CCC(c3ccccc3)CC1)C2` (configuration not stated): 5.00. Same read-out and setting: next, `Nc1cccc2c1CC(O)C(N1CCC(c3ccccc3)CC1)C2` (configuration not stated): 6.52; `OC1CCCC1N1CCC(c2ccccc2)CC1` (configuration not stated): 5.70; `O=C(c1ccccc1)N1CCN(C2CCCCC2O)CC1` (configuration not stated): 5.00. On the same count and under the same terms, in the case of `O=C1CCCCC1N1CCC(c2ccccc2)CC1` (configuration not stated) it was 4.40; in that of `C[N+]1(C2CCCCC2O)CCC(c2ccccc2)CC1` (configuration not stated), under 6.00; in that of `OCCN1CCC(c2ccccc2)CC1`, 5.00. With `CO[C@H]1CCC[C@@H](N2CCC(c3ccccc3)CC2)[C@@H]1O`, the pIC50 is 5.70. The same measure, in the same setting: next, `Cc1ccccc1N1CCN(C2CCCCC2O)CC1` (configuration not stated): 7.00. With `OC1CCCCC1N1CCC(C2CCN(C3CCCCC3O)CC2)CC1` (configuration not stated), the pIC50 is 6.70.

Molecule `COc1ccc(N2CCN(C3CCCCC3O)CC2)cc1` (configuration not stated) had a pIC50 of 6.52. The same measure, in the same setting: next, `O[C@@H]1CCCC[C@H]1CN1CCC(c2ccccc2)CC1`: 5.70; `O[C@H]1CCCC[C@H]1CN1CCC(c2ccccc2)CC1`: 6.00; `O=C(CCC(=O)Nc1cccc2c1CC(N1CCC(c3ccccc3)CC1)C(O)C2)NNC(=O)CCC(=O)Nc1cccc2c1CC(N1CCC(c3ccccc3)CC1)C(O)C2` (configuration not stated) [N-[6-Hydroxy-7-(4-phenyl-piperidin-1-yl)-5,6,7,8-tetrahydro-naphthalen-1-yl]-4-(N'-{3-[6-hydroxy-7-(4-phenyl-piperidin-1-yl)-5,6,7,8-tetrahydro-naphthalen-1-ylcarbamoyl]-propionyl}-hydrazino)-4-oxo-butyramide]: 6.00. On the same count and under the same terms, next, `CC(C)(C)[C@H]1CC[C@@H](O)[C@H](N2CCC(c3ccccc3)CC2)C1` [trans-(4S)-4-tert-butyl-2-(4-phenylpiperidin-1-yl)cyclohexanol]: 7.70.

A further assay has the same target. The description is as above. This is another data set of the same source.
`COc1ccccc1N1CCN(C2CC3CCCCC3CC2O)CC1` (configuration not stated) showed a pIC50 of 6.52.
